US20100004238A1, “FUSED HETEROCYCLIC COMPOUND” (TAKEDA PHARMACEUTICAL COMPANY LIMITED, priority 2006, published 2010)

Legend:
[1] = molecular target: T1, EGFR intracellular domain (EGFR kinase) (Homo sapiens, UniProt P00533); test: Determination of EGFR kinase inhibitory activity; type: biochemical; details: compound at 1.0 μM, poly-Glu:Tyr (4:1) substrate, [γ-32P]ATP; for inhibition at 1 µM: read-out: inhibitory rate (%) at 1.0 μM
T1 construct: made in house; host or cells: SF-21 insect cells infected with recombinant baculovirus BAC-EGFR
Method: Human EGFR gene was cloned by RT-PCR using total RNA prepared from A431 cells as a template. The primer used for RT-PCR was prepared in consideration of the information of nucleotide sequence (Genbank Accession No. X00588) of EGFR gene by adding a nucleotide sequence encoding DYKDDDD peptide and a restriction enzyme recognition sequence to a nucleotide sequence (corresponding to 2191-3819 of Genbank Accession No. X00588 as a base, 669-1210 amino acids of Genbank Accession No. NP_005219 as a protein) encoding the EGFR intracellular domain region such that the protein contains an N-terminal DYKDDDD peptide tag. The primer nucleotide sequence is shown below.
(§1) SF-21 cells were sown at 1×10^6 cells/mL in Sf-900II SFM medium (1 L, Invitrogen) containing 10% fetal bovine serum (trace), 50 mg/L gentamicin (Invitrogen) and 0.1% Pluronic F-68 (Invitrogen), and shaking culture was performed using a 2 L volume Erlenmeyer flask at 27° C., 100 rpm. After culturing for 24 hrs, recombinant baculovirus BAC-EGFR (13.4 mL) was added, and the mixture was further cultured for 3 days. The culture medium was centrifuged at 2,000 rpm for 5 min to give virus-infected cells. The infected cells were washed with a phosphate buffered saline (Invitrogen), centrifuged under the same conditions, and the cells were preserved at −80° C. The cryopreserved cells were thawed in ice, suspended in buffer A (50 mM Tris buffer (30 mL, pH 7.4) containing 20% glycerol, 0.15 M NaCl) supplemented with Complete Protease Inhibitor (Boehringer), and ruptured 3 times with a Polytron homogenizer (Kinematica) at 20,000 rpm for 30 sec. The ruptured solution was clarified by centrifugation at 40,000 rpm for 30 min, and filtered with a 0.45 μm filter. The filtrate was passed through a column packed with Anti-FLAG M2 Affinity Gel (4 mL, Sigma-Aldrich) at a flow rate of about 0.5 mL/min. The column was washed with buffer A, and eluted with buffer A containing 100 μg/mL of FLAG peptide. The eluent was concentrated with Vivaspin 20 (Vivascience) having a molecular weight cut off of 30K. The concentrate was purified by gel filtration using Hi Load 16/60 Superdex 200 pg (GE Healthcare Bioscience) equilibrated with buffer A. The fractions containing EGFR intracellular domain were collected and cryopreserved at −80° C.
(§2) EGFR kinase reaction was performed using a 96 well plate. As a buffer for kinase reaction, a buffer having a composition of 50 mM Tris-HCl (pH 7.5), 5 mM MnCl2, 2 mM dithiothreitol, 0.01% Tween-20 was used. The compound of the present invention was dissolved in dimethyl sulfoxide (DMSO), and diluted with the kinase reaction buffer so that DMSO concentration would be 0.1% during kinase reaction. This compound solution (10 μL) was mixed with a kinase reaction buffer (20 μL) containing EGFR intracellular domain (0.625 μg/mL) obtained in Experimental Example 2B and polypeptide substrate poly-Glu:Tyr (4:1) (Sigma Ltd., 12.5 μg/mL), and the mixture was stood at room temperature for 5 min. Then, a kinase reaction buffer (20 μL) containing 125 μM ATP and 45 μCi/mL [γ-^32P]ATP was added, and the kinase reaction was initiated with 50 μL of the final reaction mixture. A kinase reaction was performed at room temperature for 10 min, and the kinase reaction was quenched by addition of 20% TCA solution (50 μL). The mixture after completion of the reaction was stood at room temperature for 30 min, and acid insoluble fractions in the mixture after completion of the reaction were collected in a 96 well GF/C filter plate (PerkinElmer) using a cell harvester (PerkinElmer). Thereafter, the filter containing the acid insoluble fractions was washed with 3% phosphoric acid solution. After washing, the filter plate was dried at 45° C. for 60 min, and 25 μL of MicroScinti 0 (PerkinElmer) was added. The radioactivity was measured using TopCount (PerkinElmer).
EGFR kinase inhibitory rate (%) of the test compound was calculated by the following formula: […]

[2] = tested on: human breast cancer cell BT-474; test: Inhibitory action on breast cancer cell BT-474 proliferation in vitro; type: cell-based; details: 120 h, BT-474 cells, cultured for 5 days with compound, SRB protein content
Method: A suspension of human breast cancer cell BT-474 (100 μl (6,000 cells)) were plated in a 96-well microplate and cultured in an incubator (37° C., 5% carbon dioxide). On the following day, 100 μl of a solution of each test compound previously diluted serially in 2-fold, was added, and the cells were cultured for 5 days. After the culture medium containing the test compound was removed, the cells were washed and fixed with 50% trichloroacetic acid, after which a 0.4% (w/v) SRB dye solution (dissolved in 1% acetic acid) was added to stain as well as fix the cell protein (Skehan et al., Journal of the National Cancer Institute, Vol. 82, pp. 1107-1112, 1990). After washing with a 1% acetic acid solution, 100 μl of extract solution (10 mM, Tris buffer) was added to extract the dye and the absorbance was measured at a wavelength of 550 nm to quantify the amount of cells as protein content. Taking as 100% the protein content for the control group, which received no test compound solution, the ratio of the residual protein content for each treatment group was determined, and the compound concentration required to achieve 50% suppression of the residual cell content relative to the control (IC50 value) was calculated.

[3] = molecular target: T2, HER2 intracellular domain (HER2 kinase) (Homo sapiens, UniProt P04626); test: Determination of HER2 kinase inhibitory activity; type: biochemical; details: compound at 1.0 μM, poly-Glu:Tyr (4:1) substrate, [γ-32P]ATP, read-out: inhibitory rate (%) at 1.0 μM
T2 construct: made in house; host or cells: SF-21 insect cells infected with recombinant baculovirus BAC-HER2
Method: Human HER2 gene was cloned by RT-PCR using total RNA prepared from MCF7 cells as a template. The primer used for RT-PCR was prepared in consideration of the information of nucleotide sequence (Genbank Accession No. M11730) of HER2 gene by adding a nucleotide sequence encoding DYKDDDD peptide and a restriction enzyme recognition sequence to a nucleotide sequence (corresponding to 2176-3918 of Genbank Accession No. M11730 as a base, 676-1255 amino acids of Genbank Accession No. NP_004439 as a protein) encoding the HER2 intracellular domain region such that the protein contains an N-terminal DYKDDDD peptide tag. The primer nucleotide sequence is shown below.
as §1, with “hr,” for “hrs,”, “BAC-HER2” for “BAC-EGFR”, “HER2” for “EGFR”
as §2, with “HER2 kinase reaction” for “EGFR kinase reaction”, “buffer […] containing HER2” for “buffer (20 μL) containing EGFR”, “mL) containing HER2 intracellular domain” for “μL) containing EGFR intracellular domain”, “Experimental Example 1B and polypeptide” for “Experimental Example 2B and polypeptide”, “TopCount (PerkinElmer). HER2 kinase inhibitory rate (%) of the test compound was calculated by the following formula: […]” for “TopCount (PerkinElmer).”

T1 sequence (P00533 669-1210): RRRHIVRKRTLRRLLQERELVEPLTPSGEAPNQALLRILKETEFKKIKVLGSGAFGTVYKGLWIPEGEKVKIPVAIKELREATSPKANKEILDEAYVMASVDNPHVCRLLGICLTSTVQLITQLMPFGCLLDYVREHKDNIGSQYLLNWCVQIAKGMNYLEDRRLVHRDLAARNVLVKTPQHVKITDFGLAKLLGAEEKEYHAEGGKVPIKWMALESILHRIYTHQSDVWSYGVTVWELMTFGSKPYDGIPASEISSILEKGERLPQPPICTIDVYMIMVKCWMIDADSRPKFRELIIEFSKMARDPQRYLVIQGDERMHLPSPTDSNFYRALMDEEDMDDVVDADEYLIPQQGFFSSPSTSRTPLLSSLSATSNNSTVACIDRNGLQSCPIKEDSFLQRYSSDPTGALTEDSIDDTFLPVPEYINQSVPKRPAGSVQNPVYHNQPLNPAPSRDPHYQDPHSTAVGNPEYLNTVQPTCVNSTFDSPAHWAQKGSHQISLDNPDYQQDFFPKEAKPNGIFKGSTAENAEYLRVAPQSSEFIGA
T2 sequence (P04626 676-1255): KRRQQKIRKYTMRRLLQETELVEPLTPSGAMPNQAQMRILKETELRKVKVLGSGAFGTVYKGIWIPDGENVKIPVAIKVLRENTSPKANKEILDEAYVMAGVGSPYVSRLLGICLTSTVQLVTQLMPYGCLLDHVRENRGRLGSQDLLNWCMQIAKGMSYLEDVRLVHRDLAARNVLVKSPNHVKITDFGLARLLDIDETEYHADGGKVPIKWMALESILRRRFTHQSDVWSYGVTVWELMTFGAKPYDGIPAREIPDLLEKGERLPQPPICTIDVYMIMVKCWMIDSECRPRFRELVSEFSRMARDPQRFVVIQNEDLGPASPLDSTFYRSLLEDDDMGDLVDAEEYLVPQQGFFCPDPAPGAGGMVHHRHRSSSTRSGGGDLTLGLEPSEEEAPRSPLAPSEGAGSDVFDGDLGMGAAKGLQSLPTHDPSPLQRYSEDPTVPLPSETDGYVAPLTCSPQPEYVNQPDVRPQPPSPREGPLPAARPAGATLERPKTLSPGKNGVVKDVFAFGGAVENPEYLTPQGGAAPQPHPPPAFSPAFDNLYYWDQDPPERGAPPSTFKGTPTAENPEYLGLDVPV

Compound	inhibition at 1 µM [1] [%]	IC50 [2] [µM]	inhibition at 1 µM [3] [%]	inhibitory rate (%) at 1.0 μM ([1]; methanesulfonate, 1 µM) [%]
CN1C(=O)Cc2c(Oc3ccc(Nc4ncnc5ccn(CCO)c45)cc3Cl)cccc21 [Example 8, 4-(2-chloro-4-{[5-(2-hydroxyethyl)-5H-pyrrolo[3,2-d]pyrimidin-4-yl]amino}phenoxy)-1-methyl-1,3-dihydro-2H-indol-2-one]	100	< 0.1	–	–
CS(=O)(=O)CC(=O)NCCn1ccc2ncnc(Nc3ccc(Oc4ccc5ccsc5c4)c(Cl)c3)c21 [Example 60, N-[2-(4-{[4-(1-benzothiophen-6-yloxy)-3-chlorophenyl]amino}-5H-pyrrolo[3,2-d]pyrimidin-5-yl)ethyl]-2-(methylsulfonyl)acetamide]	99	–	–	–
CC(C)(CO)C(=O)NCCn1ccc2ncnc(Nc3ccc(Oc4ccc5ccsc5c4)c(Cl)c3)c21 [Example 53, N-[2-(4-{[4-(1-benzothiophen-6-yloxy)-3-chlorophenyl]amino}-5H-pyrrolo[3,2-d]pyrimidin-5-yl)ethyl]-3-hydroxy-2,2-dimethylpropanamide]	98	–	–	–
CC(=O)NCCn1ccc2ncnc(Nc3ccc(Oc4cccc5sccc45)c(Cl)c3)c21 [Example 99, N-[2-(4-{[4-(1-benzothiophen-4-yloxy)-3-chlorophenyl]amino}-5H-pyrrolo[3,2-d]pyrimidin-5-yl)ethyl]acetamide]	98	–	–	–
Cn1ccc2ncnc(Nc3ccc(Oc4cccc5[nH]ccc45)c(Cl)c3)c21 [Example 22, N-[3-chloro-4-(1H-indol-4-yloxy)phenyl]-5-methyl-5H-pyrrolo[3,2-d]pyrimidin-4-amine]	98	< 0.1	–	–
OCCOCCn1ccc2ncnc(Nc3ccc(Oc4cccc5[nH]ccc45)c(Cl)c3)c21 [Example 16, 2-[2-(4-{[3-chloro-4-(1H-indol-4-yloxy)phenyl]amino}-5H-pyrrolo[3,2-d]pyrimidin-5-yl)ethoxy]ethanol]	99	–	100	–
CS(=O)(=O)CC(=O)NCCn1ccc2ncnc(Nc3ccc(Oc4cccc5c4CC(=O)N5)c(Cl)c3)c21 [Example 6, N-{2-[4-({3-chloro-4-[(2-oxo-2,3-dihydro-1H-indol-4-yl)oxy]phenyl}amino)-5H-pyrrolo[3,2-d]pyrimidin-5-yl]ethyl}-2-(methylsulfonyl)acetamide]	100	< 0.1	–	–
CC(=O)NCCn1ccc2ncnc(Nc3ccc(Oc4cccc5sccc45)c(Cl)c3)c21 [Example 119, N-[2-(4-{[4-(1-benzothiophen-4-yloxy)-3-chlorophenyl]amino}-5H-pyrrolo[3,2-d]pyrimidin-5-yl)ethyl]acetamide methanesulfonate]	–	–	–	99
